In US12617768B2, “Radiolabeled cannabinoid receptor 2 ligand” (HOFFMANN-LA ROCHE INC., priority 2018, dated 2026):

Target: T1, human CB1 receptors (Homo sapiens, UniProt P21554)
T1 construct: expressed in transfected cells; host or cells: stably transfected cells (cell line for CB1 not explicitly stated)
Experiment: Radioligand competition binding of [^3H]CP55940, human CB1
Conditions: competition with [^3H]CP55940; cells recombinantly expressing the receptor
Method: Stably transfected cells or spleen tissue were homogenized in 15 mmol L-1 Hepes, 0.3 mmol L-1 EDTA, 1 mmol L-1 EGTA, 2 mmol L-1 MgCl2, complete EDTA-free protease inhibitor (Roche Applied Science, Rotkreuz, Switzerland), pH 7.4 using a glass potter and centrifugation at 47,800 g at 4° C. for 30 min. The pellet was then rehomogenized twice in the same buffer and centrifuged (47,800 g, 4° C., 30 min). The final pellet was then resuspended in 75 mmol L-1 Tris, 0.3 mmol L-1 EDTA, 1 mmol L-1 EGTA, 12.5 mmol L-1 MgCl2, 250 mmol L-1 sucrose, pH 7.4 at a protein concentration of 1 to 3 mg mL-1, aliquoted, frozen on dry ice and stored at −80° C.
For competition binding, membrane preparations were incubated either with 0.3 nM of [^3H]-CP55940 in the presence or absence of increasing concentrations of unlabeled (R^1═R^2═CH2CH3, R^3═CH2CH2CH2F) compound of formula (I) or with 1.5 nM compound of formula (I) ((R^1═R^2═CHTCH2T, R^3═CH2CH2CH2F)) and increasing amounts of membranes (2.5-80 μg) in the presence or absence of CP55940 (10 μM) for 60 min at 30° C. in a final volume of 0.2 mL of 50 mmol L-1 Tris-HCl, 5 mmol L-1 MgCl2, 2.5 mmol L-1 EGTA, 0.1% fatty acid-free BSA and 1% DMSO, pH 7.4, buffer, gently shaking. […] IC50 values and Hill slopes were determined by a four parameter logistic model using ActivityBase

T1 sequence (P21554 whole entry): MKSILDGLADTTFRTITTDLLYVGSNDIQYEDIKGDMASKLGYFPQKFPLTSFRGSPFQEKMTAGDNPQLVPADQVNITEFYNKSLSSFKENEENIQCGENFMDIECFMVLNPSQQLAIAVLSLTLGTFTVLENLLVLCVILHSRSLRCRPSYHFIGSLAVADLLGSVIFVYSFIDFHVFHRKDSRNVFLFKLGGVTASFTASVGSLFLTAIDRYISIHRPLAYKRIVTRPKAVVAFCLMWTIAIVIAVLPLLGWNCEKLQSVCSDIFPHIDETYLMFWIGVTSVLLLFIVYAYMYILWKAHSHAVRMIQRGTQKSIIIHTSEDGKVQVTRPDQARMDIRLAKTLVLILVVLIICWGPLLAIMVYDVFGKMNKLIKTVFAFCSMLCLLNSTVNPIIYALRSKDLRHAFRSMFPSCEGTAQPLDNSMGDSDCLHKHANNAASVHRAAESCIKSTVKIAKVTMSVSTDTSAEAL

CCC(CC)(NC(=O)c1ccc(N2CC(OC)C2)c(OC[C@H]2C[C@@H]2CO)n1)C(=O)OCCCF [unlabeled compound of formula (I)]
Ki: > 10 µM
